We go through 10 molecules from US11857519B2, “Compounds and methods for the targeted degradation of enhancer of zeste homolog 2 polypeptide” (Arvinas Operations, Inc., priority 2016, dated 2024).

SMILES strings stand for the structures.

For this assay, the target named is T1, EZH2 (Homo sapiens, UniProt Q15910).
T1 construct: Protocol of the Cellular Assay of Target Protein Degradation (VCaP Cells, ELISA); endogenous in cells; host or cells: VCaP cells
T1 sequence (Q15910 whole entry): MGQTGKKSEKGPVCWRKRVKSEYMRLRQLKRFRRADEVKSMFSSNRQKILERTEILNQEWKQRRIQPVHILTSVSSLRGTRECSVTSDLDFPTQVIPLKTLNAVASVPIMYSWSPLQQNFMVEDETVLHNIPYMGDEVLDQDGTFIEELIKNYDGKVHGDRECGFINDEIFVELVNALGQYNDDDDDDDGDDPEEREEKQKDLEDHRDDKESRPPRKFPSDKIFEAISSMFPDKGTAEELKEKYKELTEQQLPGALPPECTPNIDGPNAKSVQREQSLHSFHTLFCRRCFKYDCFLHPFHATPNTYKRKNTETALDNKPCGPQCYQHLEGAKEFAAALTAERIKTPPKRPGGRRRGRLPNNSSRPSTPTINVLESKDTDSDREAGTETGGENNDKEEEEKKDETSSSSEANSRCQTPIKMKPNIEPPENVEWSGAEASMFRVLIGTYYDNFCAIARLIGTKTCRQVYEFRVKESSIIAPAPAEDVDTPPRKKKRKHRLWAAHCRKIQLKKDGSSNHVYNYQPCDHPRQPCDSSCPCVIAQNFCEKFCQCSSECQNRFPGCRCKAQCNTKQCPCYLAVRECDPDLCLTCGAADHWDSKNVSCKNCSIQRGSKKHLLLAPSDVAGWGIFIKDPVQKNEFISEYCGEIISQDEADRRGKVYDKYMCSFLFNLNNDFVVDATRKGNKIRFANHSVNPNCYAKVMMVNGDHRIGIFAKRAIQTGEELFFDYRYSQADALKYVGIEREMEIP
T1 sequence (O75530 whole entry partner): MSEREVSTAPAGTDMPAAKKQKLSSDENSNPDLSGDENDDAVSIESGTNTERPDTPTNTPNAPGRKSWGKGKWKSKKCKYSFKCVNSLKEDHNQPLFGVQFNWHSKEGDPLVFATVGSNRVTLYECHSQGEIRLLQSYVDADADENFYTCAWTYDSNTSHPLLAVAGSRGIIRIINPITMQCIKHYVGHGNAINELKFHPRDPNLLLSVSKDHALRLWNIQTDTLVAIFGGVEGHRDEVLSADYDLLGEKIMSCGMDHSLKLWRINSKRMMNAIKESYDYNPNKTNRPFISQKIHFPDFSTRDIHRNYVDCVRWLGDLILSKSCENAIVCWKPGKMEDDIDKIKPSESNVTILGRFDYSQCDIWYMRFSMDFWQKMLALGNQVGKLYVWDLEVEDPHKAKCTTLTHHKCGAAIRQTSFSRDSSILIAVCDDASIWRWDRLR
T1 sequence (Q15022 whole entry partner): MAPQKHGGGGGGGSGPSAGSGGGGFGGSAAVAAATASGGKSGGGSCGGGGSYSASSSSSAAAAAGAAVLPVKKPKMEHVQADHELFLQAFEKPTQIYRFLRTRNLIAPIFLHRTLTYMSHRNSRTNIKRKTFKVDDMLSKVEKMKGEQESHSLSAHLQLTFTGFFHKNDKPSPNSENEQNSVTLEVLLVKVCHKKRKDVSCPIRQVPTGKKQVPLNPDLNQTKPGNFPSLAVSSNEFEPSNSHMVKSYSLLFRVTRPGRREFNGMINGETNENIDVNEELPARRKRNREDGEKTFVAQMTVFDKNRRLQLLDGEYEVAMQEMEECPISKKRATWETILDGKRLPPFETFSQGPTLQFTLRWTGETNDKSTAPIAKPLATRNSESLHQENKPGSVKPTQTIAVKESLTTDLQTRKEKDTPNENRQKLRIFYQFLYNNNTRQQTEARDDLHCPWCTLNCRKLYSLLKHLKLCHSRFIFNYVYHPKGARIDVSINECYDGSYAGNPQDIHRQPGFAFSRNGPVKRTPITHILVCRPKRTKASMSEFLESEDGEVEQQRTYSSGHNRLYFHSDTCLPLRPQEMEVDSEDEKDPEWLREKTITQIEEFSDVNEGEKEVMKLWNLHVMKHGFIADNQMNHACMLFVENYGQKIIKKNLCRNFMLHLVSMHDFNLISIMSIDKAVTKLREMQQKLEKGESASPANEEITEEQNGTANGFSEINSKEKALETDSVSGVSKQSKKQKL
The experiment in a line: Cellular assay of target protein degradation (VCaP cells, ELISA). Format: cell-based. To be noted: 4 hours, protein degradation range at indicated concentration (relative to DMSO control). The method in brief: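 VCaP cells grown ≥3 days in RPMI with 5% CSS, then dosed with compounds in 0.1% DMSO for 4 h. Lysates analysed by sandwich ELISA for EZH2 with TMB readout at 450 nm, 562 nm used for background subtraction.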
Turning to `CCN(c1cc(-c2ccc(OCCCCOCCOCCOc3cc(-c4scnc4C)ccc3CNC(=O)[C@@H]3C[C@@H](O)CN3C(=O)[C@H](C(C)C)N3Cc4ccccc4C3=O)cc2)cc(C(=O)NCc2c(C)cc(C)[nH]c2=O)c1C)C1CCOCC1` [Compound 55, (2S,4R)-N-({2-[2-(2-{4-[4-(3-{[(4,6-dimethyl-2-oxo-1,2-dihydropyridin-3-yl)methyl]carbamoyl}-5-[ethyl(oxan-4-yl)amino]-4-methylphenyl)phenoxy]butoxy}ethoxy)ethoxy]-4-(4-methyl-1,3-thiazol-5-yl)phenyl}methyl)-4-hydroxy-1-[(2S)-3-methyl-2-(1-oxo-2,3-dihydro-1H-isoindol-2-yl)butanoyl]pyrrolidine-2-carboxamide], the “percent target protein degradation class” value is “B (B = degradation between 30% and 60%)”.

For `CCN(c1cc(-c2ccc(OCCCOCCOc3cc(-c4scnc4C)ccc3CNC(=O)[C@@H]3C[C@@H](O)CN3C(=O)[C@H](C(C)C)N3Cc4ccccc4C3=O)cc2)cc(C(=O)NCc2c(C)cc(C)[nH]c2=O)c1C)C1CCOCC1` [Compound 56, (2S,4R)-N-{[2-(2-{3-[4-(3-{[(4,6-dimethyl-2-oxo-1,2-dihydropyridin-3-yl)methyl]carbamoyl}-5-[ethyl(oxan-4-yl)amino]-4-methylphenyl)phenoxy]propoxy}ethoxy)-4-(4-methyl-1,3-thiazol-5-yl)phenyl]methyl}-4-hydroxy-1-[(2S)-3-methyl-2-(1-oxo-2,3-dihydro-1H-isoindol-2-yl)butanoyl]pyrrolidine-2-carboxamide], the “percent target protein degradation class” value was “B (B = degradation between 30% and 60%)”.

In the case of `CCN(c1cc(-c2ccc(OCCOCCOc3ccc4c(c3)C(=O)N(C3CCC(=O)NC3=O)C4=O)cc2)cc(C(=O)NCc2c(C)cc(C)[nH]c2=O)c1C)C1CCOCC1` (stereo not shown) [Compound 57, N-[(4,6-dimethyl-2-oxo-1,2-dihydropyridin-3-yl)methyl]-5-{4-[2-(2-{[2-(2,6-dioxopiperidin-3-yl)-1,3-dioxo-2,3-dihydro-1H-isoindol-5-yl]oxy}ethoxy)ethoxy]phenyl}-3-[ethyl(oxan-4-yl)amino]-2-methylbenzamide], the “percent target protein degradation class” value was “B (B = degradation between 30% and 60%)”.

On to `CCN(c1cc(-c2ccc(OCCOCCCOc3ccc4c(c3)C(=O)N(C3CCC(=O)NC3=O)C4=O)cc2)cc(C(=O)NCc2c(C)cc(C)[nH]c2=O)c1C)C1CCOCC1` (stereo not shown) [Compound 58, N-[(4,6-dimethyl-2-oxo-1,2-dihydropyridin-3-yl)methyl]-5-{4-[2-(3-{[2-(2,6-dioxopiperidin-3-yl)-1,3-dioxo-2,3-dihydro-1H-isoindol-5-yl]oxy}propoxy)ethoxy]phenyl}-3-[ethyl(oxan-4-yl)amino]-2-methylbenzamide], for which the “percent target protein degradation class” value is “A (A = degradation more than 60%)”.

Turning to `CCN(c1cc(-c2ccc(N3CCN(CCCCOCC(=O)N[C@H](C(=O)N4C[C@H](O)C[C@H]4C(=O)N[C@@H](C)c4ccc(-c5scnc5C)cc4)C(C)(C)C)CC3)cc2)cc(C(=O)NCc2c(C)cc(C)[nH]c2=O)c1C)C1CCOCC1` [Compound 59, (2S,4R)-1-((S)-2-(2-(4-(4-(3′-(((4,6-dimethyl-2-oxo-1,2-dihydropyridin-3-yl)methyl)carbamoyl)-5′-(ethyl(tetrahydro-2H-pyran-4-yl)amino)-4′-methyl-[1,1′-biphenyl]-4-yl)piperazin-1-yl)butoxy)acetamido)-3,3-dimethylbutanoyl)-4-hydroxy-N-((S)-1-(4-(4-methylthiazol-5-yl)phenyl)ethyl)pyrrolidine-2-carboxamide], the “percent target protein degradation class” value was “B (B = degradation between 30% and 60%)”.

Take `CCN(c1cc(-c2ccc(OCCCCOc3ccc4c(c3)C(=O)N(C3CCC(=O)NC3=O)C4=O)cc2)cc(C(=O)NCc2c(C)cc(C)[nH]c2=O)c1C)C1CCOCC1` (stereo not shown) [Compound 60, N-[(4,6-dimethyl-2-oxo-1,2-dihydropyridin-3-yl)methyl]-5-[4-(4-{[2-(2,6-dioxopiperidin-3-yl)-1,3-dioxo-2,3-dihydro-1H-isoindol-5-yl]oxy}butoxy)phenyl]-3-[ethyl(oxan-4-yl)amino]-2-methylbenzamide]: the “percent target protein degradation class” value is listed as “A (A = degradation more than 60%)”.

In the case of `CCN(c1cc(-c2ccc(OCCCN3CCN(c4ccc5c(c4)C(=O)N(C4CCC(=O)NC4=O)C5=O)CC3)cc2)cc(C(=O)NCc2c(C)cc(C)[nH]c2=O)c1C)C1CCOCC1` (stereo not shown) [Compound 61, N-[(4,6-dimethyl-2-oxo-1,2-dihydropyridin-3-yl)methyl]-5-[4-(3-{4-[2-(2,6-dioxopiperidin-3-yl)-1,3-dioxo-2,3-dihydro-1H-isoindol-5-yl]piperazin-1-yl}propoxy)phenyl]-3-[ethyl(oxan-4-yl)amino]-2-methylbenzamide], the “percent target protein degradation class” value is “B (B = degradation between 30% and 60%)”.

As to `CCN(c1cc(-c2ccc(OCCCOCCCOc3ccc4c(c3)C(=O)N(C3CCC(=O)NC3=O)C4=O)cc2)cc(C(=O)NCc2c(C)cc(C)[nH]c2=O)c1C)C1CCOCC1` (stereo not shown) [Compound 62, N-[(4,6-dimethyl-2-oxo-1,2-dihydropyridin-3-yl)methyl]-5-{4-[3-(3-{[2-(2,6-dioxopiperidin-3-yl)-1,3-dioxo-2,3-dihydro-1H-isoindol-5-yl]oxy}propoxy)propoxy]pheny 1}-3-[ethyl(oxan-4-yl)amino]-2-methylbenzamide], the “percent target protein degradation class” value is “B (B = degradation between 30% and 60%)”.

`CCN(c1cc(-c2ccc(OCCCCOc3cc(-c4scnc4C)ccc3CNC(=O)[C@@H]3C[C@@H](O)CN3C(=O)[C@H](C(C)C)N3Cc4ccccc4C3=O)cc2)cc(C(=O)NCc2c(C)cc(C)[nH]c2=O)c1C)C1CCOCC1` [Compound 63, (2S,4R)-N-[(2-{4-[4-(3-{[(4,6-dimethyl-2-oxo-1,2-dihydropyridin-3-yl)methyl]carbamoyl}-5-[ethyl(oxan-4-yl)amino]-4-methylphenyl)phenoxy]butoxy}-4-(4-methyl-1,3-thiazol-5-yl)phenyl)methyl]-4-hydroxy-1-[(2S)-3-methyl-2-(1-oxo-2,3-dihydro-1H-isoindol-2-yl)butanoyl]pyrrolidine-2-carboxamide]: the “percent target protein degradation class” value is “B (B = degradation between 30% and 60%)”.

Take `CCN(c1cc(-c2ccc(OCCOc3cc(-c4scnc4C)ccc3CNC(=O)[C@@H]3C[C@@H](O)CN3C(=O)[C@H](C(C)C)N3Cc4ccccc4C3=O)cc2)cc(C(=O)NCc2c(C)cc(C)[nH]c2=O)c1C)C1CCOCC1` [Compound 64, N-[(2-{2-[4-(3-{[(4,6-dimethyl-2-oxo-1,2-dihydropyridin-3-yl)methyl]carbamoyl}-5-[ethyl(oxan-4-yl)amino]-4-methylphenyl)phenoxy]ethoxy}-4-(4-methyl-1,3-thiazol-5-yl)phenyl)methyl]-4-hydroxy-1-[3-methyl-2-(1-oxo-2,3-dihydro-1H-isoindol-2-yl)butanoyl]pyrrolidine-2-carboxamide]: the “percent target protein degradation class” value is “B (B = degradation between 30% and 60%)”.
